Experimental data from ChEMBL document CHEMBL1799910, “Optimization of 1,2,3,4-tetrahydroacridin-9(10H)-ones as antimalarials utilizing structure-activity and structure-property relationships” (J Med Chem, 2011).
In brackets after ≈: the same amount, converted by molar mass.

Columns and labels:
Plasmodium falciparum [1] = assay: Antimalarial activity against chloroquine and pyrimethamine-resistant Plasmodium falciparum W2 infected in human A positive erythrocytes after 72 hrs by SYBR Green I assay; type: functional, organism-based; details: W2, 72 h
Plasmodium falciparum [2] = assay: Antimalarial activity against chloroquine, mefloquine, pyrimethamine and atovaquone-resistant Plasmodium falciparum TM90-C2B infected in human A positive erythrocytes after 72 hrs by SYBR Green I assay; type: functional, organism-based
Plasmodium falciparum [3] = assay: Resistance index, ratio of EC50 for chloroquine, mefloquine, pyrimethamine and atovaquone-resistant Plasmodium falciparum TM90-C2B to EC50 for chloroquine and pyrimethamine-resistant Plasmodium falciparum W2; type: functional
[4] = Aqueous solubility of compound at pH 7.4 by HPLC analysis; details: buffer
[5] = Permeability of the compound by PAMPA method at pH 7.4; type: ADME; details: read-out: permeability
[6] = Partition coefficient, log D of the compound at pH 7.4 by HPLC analysis; details: octanol/water
[7] = Cytotoxicity index, ratio of EC50 for mouse J774 cells to EC50 for chloroquine, mefloquine, pyrimethamine and atovaquone-resistant Plasmodium falciparum TM90-C2B; type: cell-based; details: read-out: Ratio EC50
J774 = assay: Cytotoxicity against mouse J774 cells after 72 hrs by Cell titer 96 aqueous one solution cell proliferation assay; type: cell-based; details: J774, 72 h

Compound	EC50 (Plasmodium falciparum [1]) [nM]	EC50 (Plasmodium falciparum [2]) [nM]	Ratio EC50 (Plasmodium falciparum [3])	solubility [4] [µM]	Papp [5] [×10⁻⁶ cm/s]	logD [6]	selectivity ratio [7]	EC50 (J774) [nM]
O=C1CC(c2ccc(Cl)cc2Cl)Cc2nc3ccc(Cl)cc3c(O)c21 (configuration not stated)	8.71	27.8	3.19	1 (≈ 0.393 µg/mL)	20	3.1	≥ 100	
Cc1cc2[nH]c3c(c(=O)c2cc1C)CCCC3	262	216		41 (≈ 9.32 µg/mL)	46			> 20000
COc1ccc2[nH]c3c(c(=O)c2c1)CCC(C)(C)C3	> 9720	> 9720		9.2 (≈ 2.37 µg/mL)	128	2.3	≥ 100	> 5000
Cc1cccc2[nH]c3c(c(=O)c12)CCC(C)(C)C3	> 9990	> 9990		9 (≈ 2.17 µg/mL)	240	2.8	≥ 100	> 5000
CC1(C)CCc2c([nH]c3cc(Cl)ccc3c2=O)C1	1080	645	0.6	1 (≈ 0.262 µg/mL)		2.9	≥ 100	> 1000
CC(C)(C)c1cccc2c(=O)c3c([nH]c12)CCCC3	> 9790	> 9790		90 (≈ 23 µg/mL)	553	3.3	≥ 100	> 10000
O=c1c2c([nH]c3c(C(F)(F)F)cccc13)CCCC2	> 9350	> 9350		116 (≈ 31 µg/mL)	246	2.6	≥ 100	> 20000
Cc1cc(C)c2c(=O)c3c([nH]c2c1)CCCC3	3130	4830	1.54	17 (≈ 3.86 µg/mL)	218	2.4	≥ 100	
COc1ccc(OC)c2c(=O)c3c([nH]c12)CCCC3	> 9640	> 9640		105 (≈ 27.2 µg/mL)	9	1.5	≥ 100	> 20000
COc1ccc2c(=O)c3c([nH]c2c1)CCC3	1130	610	0.54	91 (≈ 19.6 µg/mL)	11	1.5	≥ 100	> 40000
COc1ccc2c(=O)c3c([nH]c2c1)CCCCC3	171	153	0.89	30 (≈ 7.3 µg/mL)	39	2.1	≥ 100	> 20000
COc1ccc2c(=O)c3c([nH]c2c1)CCCCCC3	146	230	1.58	98 (≈ 25.2 µg/mL)	73	2.4	≥ 100	> 40000
O=c1c2c([nH]c3cc(C(F)(F)F)ccc13)CCC2	2320	438	0.19	98 (≈ 24.8 µg/mL)	60	2.3	≥ 100	> 40000
O=c1c2c([nH]c3cc(C(F)(F)F)ccc13)CCCC2	120	19	0.16	158 (≈ 42.2 µg/mL)	73	2.7	≥ 100	> 20000
O=c1c2c([nH]c3cc(C(F)(F)F)ccc13)CCCCC2	4890	> 4340	>0.88	17 (≈ 4.78 µg/mL)	131	3	≥ 100	> 10000
O=c1c2c([nH]c3cc(C(F)(F)F)ccc13)CCCCCC2	4740	4230	0.89	13 (≈ 3.84 µg/mL)	252	3.2	≥ 100	> 10000
COc1cccc2c(=O)c3c([nH]c12)CCCC3	4770	4560	0.95	99 (≈ 22.7 µg/mL)	16	1.7	≥ 100	> 20000
COc1ccc2[nH]c3c(c(=O)c2c1)CCCC3	2440	2530	1.03	78 (≈ 17.9 µg/mL)	16	1.5	≥ 100	> 40000
COc1cccc2[nH]c3c(c(=O)c12)CCCC3	8970	5940	0.66	76 (≈ 17.4 µg/mL)	17	1.2	≥ 100	> 20000
Cc1ccc2[nH]c3c(c(=O)c2c1)CCCC3	449	656	1.46	44 (≈ 9.38 µg/mL)	19	1.7	≥ 100	> 40000
Cc1cccc2[nH]c3c(c(=O)c12)CCCC3	6250	4570	0.73	99 (≈ 21.1 µg/mL)	87	2.1	≥ 100	> 20000
O=c1c2c([nH]c3c(Cl)ccc(Cl)c13)CCCC2	> 9320	> 9320		108 (≈ 29 µg/mL)	288	2.6	≥ 100	> 20000
O=c1c2c([nH]c3c(Cl)cc(Cl)cc13)CCCC2	> 9320	> 9320		1 (≈ 0.268 µg/mL)	252	3	≥ 100	> 1000
CC(C)Oc1cc2[nH]c3c(c(=O)c2cc1Cl)CCCC3	21.3	104	4.88	0.3 (≈ 0.0875 µg/mL)		2.9	≥ 100	> 100
O=c1c2c([nH]c3cc(Br)ccc13)CCSC2	667	> 8440		17 (≈ 5.04 µg/mL)	6.3	0.9	≥ 100	> 10000
CN1CCc2[nH]c3ccccc3c(=O)c2C1	> 9990	> 9990		33 (≈ 7.07 µg/mL)	21	1	≥ 100	> 20000
O=c1c2c([nH]c3ccc(Oc4ccc(F)cc4)cc13)CCCC2	169	47	0.28	8 (≈ 2.47 µg/mL)		2.8	≥ 100	> 5000
CN(C)CCC/N=C1\CC(c2ccc(Cl)cc2Cl)Cc2nc3ccc(Cl)cc3c(O)c21 (racemic)	25	300	12				≥ 100	
C[C@H]1[C@@H](O)O[C@@H]2O[C@@]3(C)CC[C@H]4[C@H](C)CC[C@@H]1[C@@]24OO3 [ARTENIMOL]	1.8	0.9						
O=C1C(O)=C([C@H]2CC[C@H](c3ccc(Cl)cc3)CC2)C(=O)c2ccccc21 [ATOVAQUONE]	0.53	> 170						
